Experimental data from patent publication EP1261587B1, “STILBENE DERIVATIVES, THEIR PREPARATION AND THEIR USE AS ANTIVIRAL AGENTS” (priority 1999, dated 2001).
Structures can show the parent of a compound that is named as a salt. Where two headings read alike, the source gives them in different places.

Key:
[1] = target: T1, Tat-TAR complex (recombinant Tat, synthetic TAR duplex) (Human immunodeficiency virus type 1 group M subtype B, UniProt P04608); assay: competition Tat-TAR gel-shift assay; assay type: binding, HIV-1
T1 construct: purchased Medical Research Council (MRC), Cambridge, U.K
Excerpt: The in vitro inhibition of the interaction between Tat and TAR can be shown by a competition Tat-TAR gel-shift assay. Through binding of the protein (recombinant Tat, Medical Research Council (MRC), Cambridge, U.K. - for the sequence of recombinant Tat see Churcher et al., J. Mol. Biol. 230, 90-110 (1993)) to the RNA (synthetic TAR duplex, Genset, Paris, France; for the sequence see Hamy et al., J. Mol. Biol. 230, 111-123 (1993)), the overall size and the charge/weight ratio of the formed duplex are changed, so that electrophoretic migration through a native polyacrylamide gel is affected. By radioactive labelling of the RNA and subsequent autoradiography, free RNA and complexes can be discriminated based on their relative positions in the gel (Hamy et al., J. Mol. Biol. 230, 111-123 (1993)). If the binding reaction with a test substance is able to prevent the protein binding to the radiolabelled RNA, this competition for binding can be visualized on the autoradiography as a decreased intensity of the retarded band. In more detail, compounds of the formula I are tested as follows:
The 14-mer strand of duplex TAR-RNA is labelled in the presence of T4 polynucleotide kinase (New England Biolabs, Beverly, MA, USA) using [γ-^32P]ATP (Amersham, Little Chalfont, UK), 10 mM DTT (=dithiothreitol), 50 mM Tris.HCI (pH 7.4, Tris = Tris(hydroxymethyl)aminomethane), 0.77 % (w/v) spermidine (Fluka, Switzerland) and 10 units T4 polynucleotide kinase incubated at 37 °C for 20 min. After heat-treatment (65 °C, 10 min) for enzyme inactivation, the unincorporated [γ-^32P]ATP is removed by chromatography through a Sephadex NAP-10 column (Pharmacia, Uppsala, Sweden) equilibrated with water. Prior to the in-vitro-binding reaction, the labelled 14-mer is annealed to 1.5 equivalents of unlabelled 17-mer by heating to 90 C for 3 min, followed by slow cooling down to 0 °C. […] The CD50-values that are obtained are preferably in the range of from 10 x 10^-9 to 10 x 10^-6 M, more preferably from 10 x 10^-9 to 0.5 x 10^-6 M.

[2] = maximal tolerated dose (MTD) determination in mice; assay type: in vivo
Protocol: After single application of up to 50 mg/kg by i.v. administration to mice no signs of overt toxicity are observed during 8 days of observation. In detail, the assay is conducted as follows: The assay is designed for the determination of the maximal tolerated dose (MTD) For the MTD determination, three six to eight week old female Balb/c AnCbif Tif mice (Ciba animal farm, Sisseln, Switzerland) per dose group are treated once i.v. The dosage is increased until toxic effects are observed within 7 days after drug treatment. After 7 days the animals are euthanasized and organs are macroscopically inspected. The MTD is the dose where all three animals still survive. For example, when the compounds of examples 2 or 4, trans-5-(Acetoacetylamino)-2-[2-{4-(4,5-dihydro-3-methyl-5-oxo-1H-pyrazol-1-yl)-2-sulfophenyl]ethenyl]-benzenesulfonic acid or N,N'-Bis(trans-4-{2-[4-(3-methyl-5-oxo-4,5-dihydro-1H.-pyrazol-1-yl)-2-sulfo-phenyl]-vinyl}-2-sulfophenyl)-[1,3,5]triazine-2,4,6-triamine, are dissolved in sterile sodium chloride solution 0.9%, the MTD after i.v. administration is > 50 mg/kg.

HIV-1/LAV.04 = assay: inhibition of viral growth of HIV-1 in PBLs (RT activity in cell supernatants); assay type: cell-based; conditions: concentration at which 90 % reduction of RT activity versus untreated control is observed; human PBLs infected with HIV-1/LAV.04
Protocol: In brief, Peripheral Blood Mononuclear Lymphocytes (PBLs) are obtained from the blood of healthy volunteers by leukapheresis. Cells (1 x 10^6/ml) are cultured for 2 days in RPMI-1640 (Gibco), supplemented with 10 % heat-inactivated fetal calf serum (Gibco), 50 mg/ml streptomycin, 50 U/ml penicillin (Amimed), 2 nM glutamine and 10 mM hepes buffer (Gibco). Stimulated lymphocytes are obtained by culturing in the presence of PHA (0.25 mg/ml; Wellcome diagnostics, Templehill, Dartford, England). PHA-lymphocyte stimulation is confirmed by the increase in cell size (Scattergram, FACS analysis). Cells are exposed to HIV-1/LAV.04 (see Barre-Sinoussi et al., Science 220, 868-871 (1983)) for 6 h. […] Medium is changed every 3 days and activity of viral reverse transcriptase (RT activity) is determined in cell supernatants, serving as a measure for the presence of virus and thus of progression of infection according to known procedures (see Willey et al., J. Virol. 62, 353-8 (1991) for details of the method). In brief, RT determination is possible as follows: The RT activity is determined in 50mM Tris (α,α,α--tris(hydroxymethyl)methylamine, ultra pure, Merck, Federal Republic of Germany) pH 7.8; 75mM of KCl, 2mM of dithiothreitol, 5mM of MgCl2; 0.05% Nonidet P-40 (detergent; Sigma, Switzerland); 50 µg/ml of polyadenylic acid (Pharmacia, Sweden); and 1.6 µg/ml of dT(12-18) (Sigma, Switzerland). […]

[3] = concentration giving 50 % decrease in intensity of the retarded band (Tat-TAR complex), 20 nM recombinant Tat, read-out: CD50 (the source's name)

T1 sequence (P04608 whole entry, one chain of several): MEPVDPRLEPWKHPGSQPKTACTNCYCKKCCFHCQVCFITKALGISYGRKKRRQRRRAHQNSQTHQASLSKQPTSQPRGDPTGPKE

SMILES	IC50 [1, 3]	IC50 [1]	MTD at 7 days ([2]; female, Balb/c AnCbif Tif, mouse, in vivo, iv)	ED90 (HIV-1/LAV.04)	MTD ([2]; single i.v. administration, female mice, dissolved in sterile sodium chloride solution 0.9%, dose where all three animals still survive, 10080 min)
CC1=NN(c2ccc(/C=C/c3ccc(NC(=O)Nc4ccc(/C=C/c5ccc(N6N=C(C)C(N=Nc7ccccc7C(=O)O)C6=O)cc5S(=O)(=O)O)cc4S(=O)(=O)O)c(S(=O)(=O)O)c3)c(S(=O)(=O)O)c2)C(=O)C1N=Nc1ccccc1C(=O)O (stereo not drawn) [Example 5, N,N'-Bis(trans-4-{2-[4-(3-methyl-5-oxo-4-(o-carboxyphenylazo)-4,5-dihydro-1.H.-pyrazol-1-yl)-2-sulfo-phenyl]-vinyl}-2-sulfophenyl)-urea tetrasodium salt]	70 nM				
CC(=O)CC(=O)Nc1ccc(/C=C/c2ccc(N3N=C(C)CC3=O)cc2S(=O)(=O)O)c(S(=O)(=O)O)c1 [Example 2, trans-5-(Acetoacetylamino)-2-[2-{4-(4,5-dihydro-3-methyl-5-oxo-1H-pyrazol-1-yl)-2-sulfophenyl}ethenyl]-benzenesulfonic acid]		20 nM	> 50 mg/kg	30000 nM	
CC1=NN(c2ccc(/C=C/c3ccc(Nc4nc(Cl)nc(Nc5ccc(/C=C/c6ccc(N7N=C(C)CC7=O)cc6S(=O)(=O)O)cc5S(=O)(=O)O)n4)c(S(=O)(=O)O)c3)c(S(=O)(=O)O)c2)C(=O)C1 [Example 3, N,N'-Bis(trans-4-{2-[4-(3-methyl-5-oxo-4,5-dihydro-1.H.-pyrazol-1-yl)-2-sulfophenyl]-vinyl}-2-sulfophenyl)-2-chloro-[1,3,5]triazine-4,6-diamine]	50 nM			20000 nM	
CC1=NN(c2ccc(/C=C/c3ccc(Nc4nc(N)nc(Nc5ccc(/C=C/c6ccc(N7N=C(C)CC7=O)cc6S(=O)(=O)O)cc5S(=O)(=O)O)n4)c(S(=O)(=O)O)c3)c(S(=O)(=O)O)c2)C(=O)C1 [Example 4, N,N'-Bis(trans-4-{2-[4-(3-methyl-5-oxo-4,5-dihydro-1.H.-pyrazol-1-yl)-2-sulfophenyl]-vinyl}-2-sulfophenyl)-[1,3,5]triazine-2,4,6-triamine]	50 nM				> 50 mg/kg
